Experimental data published in patent US20120027720A1, “PEPTIDE CONJUGATES” (priority 2008, published 2012).
Where no end group is shown, it is not given here. [ ]: non-standard residue; d: D form.

Legend:
Assay type in all cases: cell-based
CaCo2 monolayers [1] = assay: Epithelial flux of Lucifer Yellow through cell monolayer; parameters: key to Enhanced LY permeability: + indicates an enhancement of the permeability of the tight junctions were observed; − indicates no enhancement of permeability was observed; settings: Lucifer Yellow flux, Caco-2 monolayer
Summary of the method: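 Caco-2 cells (passage 40-60) grown 21-28 days on Transwell filters, equilibrated 30 min at 37 °C in HBSS-HEPES pH 7.4; Lucifer Yellow with test compound applied apically, n=3 filters. Basolateral samples at 60, 120, 180 min read by fluorescence at 485/535 nm against standard curve; TEER also measured.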

CaCo2 monolayers [2] = assay: Trans Epithelial Electric Resistance (TEER) across cell monolayer; parameters: key to Reduced TEER: + indicates an enhancement of the permeability of the tight junctions were observed; − indicates no enhancement of permeability was observed; settings: Caco-2 monolayer
Summary of the method: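 Caco-2 cells, passage 40-60, grown 21-28 days on Transwell filters, equilibrated 30 min at 37° C in MHBSS pH 7.4. Test compound with Lucifer Yellow applied apically (n=3), incubated at 37° C with 50 RPM shaking; TEER measured at baseline and at 30, 60, 120 and 180 min.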

IEC6 cells = assay: Real-Time Cell Electronic Sensing (RT-CES, ACEA) assay of cell morphology change; parameters: key: + indicates an enhancement of the permeability of the tight junctions were observed; − indicates no enhancement of permeability was observed; settings: peptide at 5 mg/mL
From the text: Agonists of tight junctions can be identified by their ability to induce changes in morphology of cells in a monolayer of cells that comprise tight junctions. Such changes in the morphology of IEC6 cells may be measured using a Real-Time Cell Electronic Sensing protocol as described below.
Tight junction agonists can be identified using the following method an used in peptide conjugates of the invention:
Materials: cells: IEC6 passage 30-50, medium: DMEM 10% no calcium no magnesium, foetal bovine serum 0.1 unit per ml bovine insulin, buffers: phosphate buffered saline (PBS) no calcium no magnesium, trypsin: 0.25% porcine trypsin in HBSS no calcium no magnesium, flasks: 100×20 mm Tissue culture dish Falcon, plates: 16× E-Plate, machine: RT-CES™ 16× system (ACEA Biosciences, Inc., San Diego, Calif.)
Wash a 75 cm^2 flask of confluent IEC6 cells twice with 25 ml of PBS.
Add 2.5 ml of trypsin to the flask and place back in the incubator at 37° C.
Wash cells from the surface of the flask with 10 ml of serum containing media to quench the trypsin.
Pellet the cells by centrifugation at 1500 rpm for 5 minutes aspirate the media.
Resuspend the cell pellet in 10 ml of serum free media and centrifuge at 1500 rpm for 5 minutes aspirate the media and repeat for a total of 5 washes.
Take 100 μl of cells and mix with 100 μl of trypan blue.
Count the cells four times and use the average cell concentration.
Dilute the cells to 1×10^6 per ml in serum free media.
Add 100 μl of serum free media to each well of the ACEA plates to be used.
Insert the ACEA plate and press scan.
Run step 1 of the program to measure background.
Add 50 μl of cells to each well of the ACEA plate tap each slide of the plate 10 times and place the cells on the bench for 15 minutes to allow the cells to settle.
Insert the ACEA plate and run the scan step to check connections and run step 2-1 and 2-2 overnight.
Step 2-1 sample every 2 minutes 30 times.
Step 2-2 sample every 15 minutes 100 times.
The cell indices should be between 6-10 after the overnight run and should have reached a plateau.
Remove 100 μl of media carefully from each well.
Make up the compounds to be tested so that 50 μl contains 2× the desired final concentration.
Add 50 μl of compounds to the designated wells.
Scan the plate to check connections.
Step 3-1 sample every 2 minutes 30 times.
Step 3-2 sample every 15 minutes 100 times.

Substance	Enhanced LY permeability (CaCo2 monolayers [1])	Reduced TEER (CaCo2 monolayers [2])	ACEA 5 mg/mL (IEC6 cells)
5 (FCIARL; not fully specified; printed as Phe-Cys-Ile-Ala-Arg-Leu) [compound 5]	−	−	−
6 (FCIGAL; not fully specified; printed as Phe-Cys-Ile-Gly-Ala-Leu) [compound 6]	−	−	+
7 (FCIGRA; not fully specified; printed as Phe-Cys-Ile-Gly-Arg-Ala) [compound 7]	+	+	+
8 (CIGRL; not fully specified; printed as Cys-Ile-Gly-Arg-Leu) [compound 8]	−	−	−
10 (FCIGR; also: peptide conjugate) [compound 10]	+	+	+
13 (F[dC]IGRL; also: peptide conjugate) [compound 13]	+	+	+
14 (FC[dI]GRL; also: peptide conjugate) [compound 14]	+	+	−
15 (FCIG[dR]L; also: peptide conjugate) [compound 15]	−	−	+
16 (FCIGR[dL]; also: peptide conjugate) [compound 16]	−	−	−
17 ([dL][dR]G[dI][dC][dF]; also: peptide conjugate) [compound 17]	+	+	−
18 ([dL][dR]G[dI][dC]F; not fully specified; printed as D-Leu-D-Arg-Gly-D-Ile-D-Cys-Phe) [compound 18]	+	+	+
19 ([dL][dR]G[dI]C[dF]; not fully specified; printed as D-Leu-D-Arg-Gly-D-Ile-Cys-D-Phe) [compound 19]	+	+	+
22 (L[dR]G[dI][dC][dF]; not fully specified; printed as Leu-D-Arg-Gly-D-Ile-D-Cys-D-Phe) [compound 22]	+	+	−
23 (LRGICF; not fully specified; printed as Leu-Arg-Gly-Ile-Cys-Phe) [compound 23]	+	+	−
24 ([dL]RGICF; not fully specified; printed as D-Leu-Arg-Gly-Ile-Cys-Phe) [compound 24]	−	−	+
25 (L[dR]GICF; not fully specified; printed as Leu-D-Arg-Gly-Ile-Cys-Phe) [compound 25]	−	−	+
29 ([dF][dC][dI]G[dR][dL]; not fully specified; printed as D-Phe-D-Cys-D-Ile-Gly-D-Arg-D-Leu) [compound 29]	+	+	−
32 ([dF][dC]IG[dR][dL]; not fully specified; printed as D-Phe-D-Cys-Ile-Gly-D-Arg-D-Leu) [compound 32]	+	+	−
33 ([dF]C[dI]G[dR][dL]; not fully specified; printed as D-Phe-Cys-D-Ile-Gly-D-Arg-D-Leu) [compound 33]	−	−	+
